Test system: LPS-induced release of TNFα from PBMCs from healthy donors
Assay: ELISA-based TNFα release assay, PBMCs from healthy donors
Type: cell-based
Conditions: Homo sapiens, PBMC; recombinant murine antibodies 1 μg/ml; Batimastat 10 μM; LPS 50 ng/ml, 2 hours
Procedure: In the following study, ELISA-based TNFα release assays were performed to analyze the inhibitory effects of the antibodies of the present disclosure on LPS-induced release of endogenous TNFα from primary human material obtained from healthy donors using peripheral blood mononuclear cells (PBMCs).
In brief, on day 1, Nunc black MaxiSorp® 96-well plates (Thermo Fisher Scientific, USA) were coated overnight with 100 μl per well of mouse anti-human TNFα capture antibody (provided as part of the DuoSet ELISA kit) at 4 μg/ml TBS at 4° C. On day 2, the capture antibody solution was removed and MaxiSorp® plates were blocked with 300 μl per well of TBS, 1% BSA at room temperature for 3 hours. […] Using an infinite M1000 (Tecan Group, Switzerland) microplate reader, the fluorescence of each well was collected at an excitation wavelength of 435 nm and an emission wavelength of 555 nm.

CNC(=O)[C@H](Cc1ccccc1)NC(=O)[C@H](CC(C)C)[C@H](CSc1cccs1)C(=O)NO [Batimastat]
inhibition at 10 µM: 99.6%
